Values of other authors as cited in PMC7178755 (Toxicology and applied pharmacology, 2019).
Like-named read-outs stand apart in the source and are kept apart here. Marks after values point to notes of the source that are not given here.

Experiments:
[1] = rat, in vivo, 100 mg/kg; cited from earlier work
[2] = free BPA; female SD rats; 0.1 mg/kg gavage; ref Dorege et al., (2010); cited from earlier work
[3] = free BPA; female CD-1 mice; 100 mg/kg gavage; ref Taylor et al., (2015); cited from earlier work
[4] = free BPA; female Rhesus Monkeys; 0.4 mg/kg oral; ref Taylor et al., (2015); cited from earlier work
[5] = rat uterotrophic assay; administered orally; ref Conley et al., 2016; cited from earlier work

| Compound | time of maximum plasma concentration [1] [min] | AUC0−∞ [2] | Cmax [2] [nM] | Dose-normalized AUC0−∞ [2] | Dose-normalized Cmax [2] | AUC0−∞ [3] | Cmax [3] [nM] | Dose-normalized AUC0−∞ [3] | Dose-normalized Cmax [3] | Tmax [3] [h] | AUC0−∞ [4] | Cmax [4] [nM] | Half-life (terminal, beta) [4] [h] | Tmax [4] [h] | ED50 [5] [mg/kg/day] |
| --- | --- | --- | --- | --- | --- | --- | --- | --- | --- | --- | --- | --- | --- | --- | --- |
| O=C(O)[C@H]1O[C@@H](Oc2ccc(C(c3ccc(O)cc3)(C(F)(F)F)C(F)(F)F)cc2)[C@H](O)[C@@H](O)[C@@H]1O [BPAF-glucuronide] | 30 |  |  |  |  |  |  |  |  |  |  |  |  |  |  |
| CC(C)(c1ccc(O)cc1)c1ccc(O)cc1 [BPA, bisphenol A] |  | 0.0026^g nmol.h/mL | 0.39 | 5.91 (nmol.h/mL)/(mmol/kg) | 0.886 (nmol/mL)/(mmol/kg) | 13.1^i nmol.h/mL | 4160 | 29.8 (nmol.h/mL)/(mmol/kg) | 9.47 (nmol/mL)/(mmol/kg) | 1 | 0.0589^i nmol.h/mL | 17.3 | 8.88 | 1 | 1118.0 |
